For the series the following is noted: ester bond, 2 steps.

Like-named read-outs stand apart in the source and are kept apart here.

Turning to `COCCOCCOCCOCCOCCOCCOCCOCCOCCOCC(=O)NCCCC[C@@H]1NC(=O)[C@@H](NC(=O)CCCN2C(=O)C=CC2=O)[C@@H](NC(=O)CCCN2C(=O)C=CC2=O)C(=O)N[C@@H](CCCCNC(=O)COCCOCCOCCOCCOCCOCCOCCOCCOCCOC)C(=O)NCCCC(=O)Nc2cc(C[C@@H](C[C@H](C)C(=O)OC(C)(C)C)NC(=O)OC(C)(C)C)ccc2OC(=O)CCCNC1=O`, the ring closure, isolated yield (from (7S,10R,11S,14S)-10,11-bis(4-(2,5-dioxo-2,5-dihydro-1H-pyrrol-1-yl)butanamido)-6,9,12,15-tetraoxo-7,14-bis(31-oxo-2,5,8,11,14,17,20,23,26,29-decaoxa-32-azahexatriacontan-36-yl)-5,8,13,16-tetraazaicosane-1,20-dioic acid + (2S,4R)-tert-butyl 5-(3-amino-4-hydroxyphenyl)-4-((tert-butoxycarbonyl)amino)-2-methylpentanoate?, 24-membered ring) was found to be 52%.
Regarding `COC(=O)[C@H](Cc1ccc2c(c1)NC(=O)CCCNC(=O)C(NC(=O)CCN1C(=O)C=CC1=O)C(NC(=O)CCN1C(=O)C=CC1=O)C(=O)NCCCC(=O)O2)NC(=O)OC(C)(C)C` (stereo partly shown), under “from 4,4′-((2,3-bis(2-(2,5-dioxo-2,5-dihydro-1H-pyrrol-1-yl)acetamido)-succinyl)bis(azanediyl))dibutanoic acid + (S)-methyl 3-(3-amino-4-hydroxyphenyl)-2-(tert-butoxycarbonylamino)propanoate?, 18-membered ring”, the ring closure, isolated yield worked out at 68%.
As for `C[C@@H](C[C@H](Cc1ccc2c(c1)NC(=O)CCCNC(=O)[C@H](CCCCNC(=O)CCOCCOCCOCCC(=O)NCCOCCOCCC(=O)NCCOCCOCCC(=O)OC(C)(C)C)NC(=O)CCCNC(=O)[C@H](NC(=O)CCN1C(=O)C=CC1=O)[C@H](NC(=O)CCN1C(=O)C=CC1=O)C(=O)NCCCC(=O)O2)NC(=O)OC(C)(C)C)C(=O)OC(C)(C)C`, for the setting “from C[C@@H](C[C@H](Cc1ccc(O)c(NC(=O)CCCNC(=O)[C@H](CCCCNC(=O)CCOCCOCCOCCC(=O)NCCOCCOCCC(=O)NCCOCCOCCC(=O)OC(C)(C)C)NC(=O)CCCNC(=O)[C@@H](NC(=O)CCN2C(=O)C=CC2=O)[C@@H](NC(=O)CCN2C(=O)C=CC2=O)C(=O)NCCCC(=O)O)c1)NC(=O)OC(C)(C)C)C(=O)OC(C)(C)C, 26-membered ring”, the ring closure, isolated yield was determined as 39%.
In the case of `CC(C)[C@@H]1NC(=O)[C@H](C)NC(=O)CCCNC(=O)[C@H](NC(=O)CN2C(=O)C=CC2=O)[C@H](NC(=O)CN2C(=O)C=CC2=O)C(=O)NCCCC(=O)Oc2ccc(C[C@@H](C[C@H](C)C(=O)OC(C)(C)C)NC(=O)OC(C)(C)C)cc2NC1=O`, the ring closure, isolated yield (from (2S,4R)-tert-butyl 5-(3-((S)-2-((S)-2-aminopropanamido)-3-methylbutanamido)-4-hydroxyphenyl)-4-((tert-butoxycarbonyl)amino)-2-methylpentanoate + 4,4′-(((2R,3S)-2,3-bis(2-(2,5-dioxo-2,5-dihydro-1H-pyrrol-1-yl)acetamido)succinyl)bis(azanediyl))-dibutanoic acid?, 24-membered ring) was found to be 62%.
